According to patent US10150737B2, “Compounds for controlling arthropods” (priority 2013, dated 2018):

Columns and labels:
[1] = logP determination by HPLC on a reversed-phase column (C18); type: physicochemical; settings: for logP^a): HPLC-MS method a); for log P: HPLC-MS; for logP: HPLC, C18 reversed phase, acetonitrile/water with formic acid, EEC Directive 79/831 Annex V.A8
Rhipicephalus sanguineus = Rhipicephalus sanguineus - in vitro contact tests with adult brown dog ticks; type: in vivo; settings: application rate 5 μg/cm2; after 48 h; ticks dead or moribund
Method: For the coating of the test tubes, 9 mg of active ingredient are first dissolved in 1 ml of acetone p.a. and then diluted to the desired concentration with acetone p.a. 250 μl of the solution are distributed homogeneously on the inner walls and base of a 25 ml test tube by turning and rocking on an orbital shaker (rocking rotation at 30 rpm for 2 h). With 900 ppm active ingredient solution and internal surface 44.7 cm^2, given homogeneous distribution, an area-based dose of 5 μg/cm^2 is achieved.
After the solvent has evaporated off, the tubes are populated with 5-10 adult dog ticks (Rhipicephalus sanguineus), sealed with a perforated plastic lid and incubated in a horizontal position in the dark at room temperature and ambient humidity. After 48 h, efficacy is determined. To this end, the ticks are knocked to the floor of the tube and incubated on a hotplate at 45-50° C. for not more than 5 min. Ticks which remain motionless on the floor or move in such an uncoordinated manner that they are unable to deliberately avoid the heat by climbing upwards are considered to be dead or moribund.
An efficacy of 100% means that all the ticks were dead or moribund. 0% efficacy means that none of the ticks had been harmed.

Boophilus microplus = Boophilus microplus - injection test; type: in vivo; settings: application rate 20 μg/animal; injection into engorged adult female ticks; after 7 days
Method in brief: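 Active ingredient in DMSO, 1 μl injected into the abdomen of 5 engorged adult female ticks, then held in a climate-controlled room. Efficacy scored after 7 days from laying of fertile eggs, with non-fertile-looking eggs kept about 42 days for larval hatch; 100% means no fertile eggs.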

Ctenocephalides felis [2] = assay: Ctenocephalides felis - oral test; type: in vivo; settings: application rate 100 ppm in citrated cattle blood; after 2 days
Method in brief: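 Compound in DMSO diluted into citrated cattle blood, fed through a parafilm membrane to about 20 unfed adult cat fleas. Kill in % scored after 2 days (100% = all dead).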

Lucilia cuprina = Lucilia cuprina test; type: in vivo; settings: application rate 100 ppm; L1 larvae; after 2 days
Method in brief: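 About 20 L1 larvae placed on minced horsemeat treated with compound, formulated in DMSO and diluted with water to test concentration. Kill in % scored after 2 days (100% = all larvae dead, 0% = none).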

Musca domestica = Musca domestica test; type: in vivo; settings: application rate 100 ppm; adult houseflies; after 2 days
Method in brief: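 Compound dissolved in DMSO (10 mg per 0.5 ml) and diluted with water to the test concentration. Sponges soaked with sugar solution plus formulation were offered to 10 adult houseflies per vessel. Mortality (% kill, 100% = all dead, 0% = none) scored after 2 days.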

Myzus persicae = Myzus persicae - spray test; type: in vivo; settings: Chinese cabbage leaf discs, after 6 days
Method in brief: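 Chinese cabbage leaf discs carrying all stages of Myzus persicae sprayed with compound in acetone/DMF diluted in water with 1000 ppm emulsifier. Efficacy (% aphids killed) assessed after 6 days.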

Phaedon cochleariae = Phaedon cochleariae - spray test; type: in vivo; settings: larvae on Chinese cabbage leaf discs, after 7 days
Method in brief: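 Chinese cabbage leaf discs sprayed with compound formulated in acetone/DMF and water containing 1000 ppm emulsifier; once dry, infested with mustard beetle larvae. Efficacy (% larvae killed) scored after 7 days.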

Spodoptera frugiperda = Spodoptera frugiperda - spray test; type: in vivo; settings: caterpillars on maize leaf discs, after 7 days
Method in brief: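 Maize leaf discs sprayed with compound formulated in acetone/DMF and diluted in water containing 1000 ppm alkylaryl polyglycol ether emulsifier, then infested with armyworm caterpillars after drying. Efficacy scored after 7 days as % caterpillars killed (100% all, 0% none).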

Tetranychus urticae = Tetranychus urticae - spray test, OP-resistant; type: in vivo; settings: bean leaf discs, after 6 days
Method in brief: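 Compound dissolved in acetone/DMF, diluted with water containing 1000 ppm alkylaryl polyglycol ether emulsifier to test concentrations. Bean leaf discs infested with all stages of spider mites were sprayed; % kill determined after 6 days (100% = all mites dead, 0% = none).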

Ctenocephalides felis [3] = assay: Ctenocephalides felis - in vitro contact tests with adult cat fleas; type: in vivo; settings: application rate 5 μg/cm2 (=500 g/ha); after 48 h; fleas dead or moribund
Method in brief: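 Tubes coated with compound in acetone (250 μl of 900 ppm solution gives 5 μg/cm^2 on 44.7 cm^2), solvent evaporated, then 5–10 adult fleas added and kept horizontal at room temperature and ambient humidity. After 48 h, dead or moribund (motionless/uncoordinated) fleas scored as % efficacy.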

[4] = test system: Boophilus microplus Parkhurst strain, SP-resistant; assay: Boophilus microplus - dip test; type: in vivo; settings: application rate 100 ppm; dip of engorged adult female ticks; after 7 days
Method: Test animals: cattle ticks (Boophilus microplus) Parkhurst strain, SP-resistant
Solvent: dimethyl sulphoxide
10 mg of active ingredient are dissolved in 0.5 ml of dimethyl sulphoxide. For the purpose of producing a suitable formulation, the active ingredient solution is diluted with water to the concentration desired in each case.
This active ingredient formulation is pipetted into tubes. 8-10 adult engorged female cattle ticks (Boophilus microplus) are transferred into a further tube with holes. The tube is immersed into the active ingredient formulation, and all the ticks are completely wetted. After the liquid has run out, the ticks are transferred on filter discs into plastic dishes and stored in a climate-controlled room.
Efficacy is assessed after 7 days by laying of fertile eggs. Eggs which are not visibly fertile are stored in a climate-controlled cabinet until the larvae hatch after about 42 days. An efficacy of 100% means that none of the ticks has laid any fertile eggs; 0% means that all the eggs are fertile.

[5] = reversed-phase column (C18), Table I-T3

| Structure (SMILES) | logP^a) [1] | logP^a) [1, 5] | efficacy (Rhipicephalus sanguineus) [%] | efficacy (laying of fertile eggs) (Boophilus microplus) [%] | efficacy (kill) (Ctenocephalides felis [2]) [%] | efficacy (kill) (Lucilia cuprina) [%] | efficacy (kill) (Musca domestica) [%] | efficacy (Myzus persicae; application rate 100 g/ha) [%] | efficacy (Phaedon cochleariae; application rate 100 g/ha) [%] | efficacy (Spodoptera frugiperda; application rate 100 g/ha) [%] | efficacy (Tetranychus urticae; application rate 100 g/ha) [%] | efficacy (Ctenocephalides felis [3]) [%] | efficacy (laying of fertile eggs) [4] [%] | log P [1, 5] | logP [1] | further results |
| --- | --- | --- | --- | --- | --- | --- | --- | --- | --- | --- | --- | --- | --- | --- | --- | --- |
| CCc1cc(C(F)(C(F)(F)F)C(F)(F)F)ccc1-n1cc(-c2ccc(Cl)c(C(=O)NC3(C#N)CC3)c2)cn1 [I-T3-38] | 4.5 | 4.5 | 80 | 100 | 100 | 100 | 100 | 90 | 100 | 100 | 100 |  |  |  |  |  |
| CCc1cc(C(F)(C(F)(F)F)C(F)(F)F)cc(C)c1-n1cc(-c2ccc(Cl)c(C(=O)NC3(C#N)CC3)c2)cn1 [I-T3-46] | 4.6 | 4.6 | 100 | 100 | 100 | 100 | 100 |  |  |  |  | 100 |  |  |  | efficacy (Myzus persicae; application rate 500 g/ha): 100%; efficacy (Phaedon cochleariae; application rate 500 g/ha): 100%; efficacy (Spodoptera frugiperda; application rate 500 g/ha): 100%; efficacy (Tetranychus urticae; application rate 500 g/ha): 100% |
| CCc1cc(C(F)(F)C(F)(F)F)cc(C)c1-n1cc(-c2ccc(Cl)c(C(=O)NC3(C#N)CC3)c2)cn1 [I-T3-80] | 4.2 | 4.2 | 80 | 100 | 100 | 100 | 100 | 90 | 100 | 100 | 100 | 100 | 80 |  |  |  |
| O=C(NC1CC1)c1cc(-c2cnn(-c3c(Cl)cc(OC(F)(F)F)cc3Cl)c2)ccc1Cl [I-T3-88] | 3.6 | 3.6 | 80 | 100 | 100 | 100 | 80 | 100 | 100 | 100 | 100 | 100 |  |  |  |  |
| COc1ncc(-c2cnn(-c3c(C)cc(C(F)(C(F)(F)F)C(F)(F)F)cc3C)c2)cc1C(=O)NC1CC1 [I-T3-143] |  |  | 80 | 100 | 100 | 100 | 100 |  | 100 | 100 |  | 100 |  | 4.6 |  | logP^a) ([1]; reversed-phase column (C18)): 4.6 |
| O=C(NC1CC1)c1cc(-c2cnn(-c3c(Br)cc(C(F)(C(F)(F)F)C(F)(F)F)cc3C(F)(F)F)c2)cnc1Cl [I-T3-160] |  |  | 100 | 100 | 100 | 100 | 100 | 90 | 100 | 100 | 100 | 100 | 100 | 4.0 |  | logP^a) ([1]; reversed-phase column (C18)): 4.0 |
| Cc1cc(C(F)(C(F)(F)F)C(F)(F)F)cc(C(F)(F)F)c1-n1cc(-c2ccc(Cl)c(C(=S)NC3CC3)c2)cn1 [I-T3-161, 2-chloro-N-cyclopropyl-5-[1-[2-methyl-4-[1,2,2,2-tetrafluoro-1-(trifluoromethyl)ethyl]-6-(trifluoromethyl)phenyl]pyrazo-4-yl]benzenecarbothioamide] |  |  | 100 | 100 | 100 | 100 | 100 |  | 100 | 100 | 100 |  |  | 5.0 | 5.0 | logP^a) ([1]; reversed-phase column (C18)): 5.0 |
| N#CC1(NC(=O)c2cc(-c3cnn(-c4c(Br)cc(C(F)(C(F)(F)F)C(F)(F)F)cc4C(F)(F)F)c3)cnc2Cl)CC1 [I-T3-165] |  |  | 100 | 100 | 100 | 100 | 100 | 100 | 100 | 100 | 100 | 100 | 100 | 3.9 |  |  |
| O=C(NC1CC1)c1cc(-c2cnn(-c3c(Cl)cc(C(F)(C(F)(F)F)C(F)(F)F)cc3OC(F)(F)F)c2)cnc1Cl [I-T3-189] |  |  | 100 |  | 100 | 100 | 100 | 100 | 100 | 100 | 100 | 100 |  | 4.3 |  |  |
| O=C(NC1CC1)c1cc(-c2cnn(-c3c(Cl)cc(C(F)(C(F)(F)F)C(F)(F)F)cc3OC(F)F)c2)cnc1Cl [I-T3-196] |  |  | 100 |  |  |  |  |  |  |  |  | 100 |  | 3.9 |  |  |
| Cc1cc(C(F)(C(F)(F)F)C(F)(F)F)cc(C)c1-c1cnn(-c2ccc(Cl)c(C(=O)NC3(C#N)CC3)c2)c1 [I-T4-2] |  |  | 100 | 100 | 100 | 100 | 100 |  | 100 | 100 | 100 | 100 |  |  | 4.6 | efficacy (Myzus persicae; application rate 20 g/ha): 90% |
| Cc1cc(C(F)(C(F)(F)F)C(F)(F)F)cc(C(F)(F)F)c1-c1cc(-c2cnc(Cl)c(C(=O)NC3(C#N)CC3)c2)on1 [I-T22-4] |  |  | 100 | 100 | 100 |  |  |  | 100 |  | 100 |  | 100 |  | 4.4 |  |
| Cc1cc(C(F)(C(F)(F)F)C(F)(F)F)cc(C(F)(F)F)c1-c1cc(-c2cnc(Cl)c(C(=O)NC3CC3)c2)on1 [I-T22-6] |  |  | 100 | 100 | 95 | 100 | 90 |  | 100 |  |  |  | 100 |  | 4.5 |  |
